Here are results for 7 compounds from ChEMBL document CHEMBL4400519, “Indazolylketones as new multitarget cannabinoid drugs” (Eur J Med Chem, 2019).

Active and inactive are the calls of the source. No cut-off for these calls is given here.

Data set [1] is filed under the species Homo sapiens. Kind of data set: Antiproliferative activity against Alzheimer's patient derived lymphoblast cells at 5 uM after 72 hrs by MTT assay. The data set is classed as functional.
Data set [2] concerns the target T1, Cannabinoid receptor (Mus musculus) (UniProt P47746+P47936). Kind of data set: Agonist activity at cannabinoid receptor in ICR mouse vas deferens assessed as inhibition of electrically induced contractions at 10^-7 M after 10 mins in presence of CB2 antagonist AM630 relative to control. In kind it is protein assay.
Data set [3] addresses T1, Cannabinoid receptor (Mus musculus). Kind of data set: Agonist activity at cannabinoid receptor in ICR mouse vas deferens assessed as inhibition of electrically induced contractions at 8.1 x 10^-6 M after 10 mins in presence of CB2 antagonist AM630 relative to control. In kind it is protein assay.
The target is the same in data set [4]. Briefly: Agonist activity at cannabinoid receptor in ICR mouse vas deferens assessed as inhibition of electrically induced contractions at 10^-7 M after 10 mins relative to control. In kind it is protein assay.
Data set [5] has the same target. Kind of data set: Agonist activity at cannabinoid receptor in ICR mouse vas deferens assessed as inhibition of electrically induced contractions at 10^-7 M after 10 mins in presence of CB1 antagonist AM251 relative to control. In kind it is protein assay.
Data set [6] has as its target T2, Acetylcholinesterase (Homo sapiens, UniProt P22303). Briefly: Inhibition of human erythrocyte AChE using acetylthiocholine as substrate by Ellman's assay.
In the next data set the target is Cholinesterase (Homo sapiens, UniProt P06276). Briefly: Inhibition of human serum BChE using butyrylthiocholine as substrate by Ellman's assay.
In data set [7] the test system is SH-SY5Y. Kind of data set: Neuroprotective activity against amyloid beta-induced neurodegeneration in human SH-SY5Y cells at 20 uM preincubated for 1 hr followed by amyloid beta addition and measured after 24 hrs in presence of CB2 antagonist AM630 by MTT assay. The data set is classed as functional, cell-based.
Data set [8] has as its system SH-SY5Y. Briefly: Neuroprotective activity against amyloid beta-induced neurodegeneration in human SH-SY5Y cells at 20 uM preincubated for 1 hr followed by amyloid beta addition and measured after 24 hrs by MTT assay. The data set is classed as functional, cell-based.
Data set [9] has as its target T1, Cannabinoid receptor (Mus musculus). Kind of data set: Agonist activity at cannabinoid receptor in ICR mouse vas deferens assessed as inhibition of electrically induced contractions at 2.7 x 10^-6 M after 10 mins in presence of CB2 antagonist AM630 relative to control. In kind it is protein assay.
Data set [10] has the same target. Kind of data set: Agonist activity at cannabinoid receptor in ICR mouse vas deferens assessed as inhibition of electrically induced contractions at 1.82 x 10^-5 M after 10 mins relative to control. In kind it is protein assay.
For data set [11] the target is unchanged. Kind of data set: Agonist activity at cannabinoid receptor in ICR mouse vas deferens assessed as inhibition of electrically induced contractions at 3 x 10^-7 M after 10 mins in presence of CB2 antagonist AM630 relative to control. The data set is classed as protein assay.
Data set [12] is filed under the species Homo sapiens. Kind of data set: Antiproliferative activity against Alzheimer's patient derived lymphoblast cells at 5 uM in presence of CB2 antagonist AM630 after 72 hrs by MTT assay. In kind it is functional.
Data set [13] concerns the target T1, Cannabinoid receptor (Mus musculus). Briefly: Agonist activity at cannabinoid receptor in ICR mouse vas deferens assessed as inhibition of electrically induced contractions at 9 x 10^-7 M after 10 mins relative to control. The data set is classed as protein assay.
The target is the same in data set [14]. Kind of data set: Agonist activity at cannabinoid receptor in ICR mouse vas deferens assessed as inhibition of electrically induced contractions at 2.7 x 10^-6 M after 10 mins in presence of CB1 antagonist AM251 relative to control. The data set is classed as protein assay.
Data set [15] has the same target. Kind of data set: Agonist activity at cannabinoid receptor in ICR mouse vas deferens assessed as inhibition of electrically induced contractions at 9 x 10^-7 M after 10 mins in presence of CB2 antagonist AM630 relative to control. The data set is classed as protein assay.
For data set [16] the target is unchanged. Kind of data set: Agonist activity at cannabinoid receptor in ICR mouse vas deferens assessed as inhibition of electrically induced contractions at 3 x 10^-7 M after 10 mins in presence of CB1 antagonist AM251 relative to control. The data set is classed as protein assay.
The target is the same in data set [17]. Kind of data set: Agonist activity at cannabinoid receptor in ICR mouse vas deferens assessed as inhibition of electrically induced contractions at 3 x 10^-7 M after 10 mins relative to control. The data set is classed as protein assay.
The nature of data set [18]: Antioxidant activity assessed as trolox equivalent of APPH-induced radical scavenging activity by ORAC-FL assay. In kind it is functional.
Data set [19] deals with T1, Cannabinoid receptor (Mus musculus). Briefly: Agonist activity at cannabinoid receptor in ICR mouse vas deferens assessed as inhibition of electrically induced contractions at 9 x 10^-7 M after 10 mins in presence of CB1 antagonist AM251 relative to control. The data set is classed as protein assay.
The target of data set [20] is Beta-secretase 1 (Homo sapiens) (UniProt P56817). Kind of data set: Inhibition of human BACE1 at 10 uM incubated for 60 mins using rhodamine-EVNLDAEFK-quencher substrate by FRET assay.
For data set [21], the target named is T1, Cannabinoid receptor (Mus musculus). Briefly: Agonist activity at cannabinoid receptor in ICR mouse vas deferens assessed as inhibition of electrically induced contractions at 8.1 x 10^-6 M after 10 mins relative to control. The data set is classed as protein assay.
The target is the same in data set [22]. Kind of data set: Agonist activity at cannabinoid receptor in ICR mouse vas deferens assessed as inhibition of electrically induced contractions at 1.82 x 10^-5 M after 10 mins in presence of CB1 antagonist AM251 relative to control. The data set is classed as protein assay.
For data set [23] the target is unchanged. Kind of data set: Agonist activity at cannabinoid receptor in ICR mouse vas deferens assessed as inhibition of electrically induced contractions at 8.1 x 10^-6 M after 10 mins in presence of CB1 antagonist AM251 relative to control. The data set is classed as protein assay.
A short description of data set [24]: Antiproliferative activity against normal human derived lymphoblast cells at 5 uM after 72 hrs by MTT assay.
For data set [25], the target named is T1, Cannabinoid receptor (Mus musculus). Briefly: Agonist activity at cannabinoid receptor in ICR mouse vas deferens assessed as inhibition of electrically induced contractions at 2.7 x 10^-6 M after 10 mins relative to control. In kind it is protein assay.
Data set [26] shares this target. Briefly: Agonist activity at cannabinoid receptor in ICR mouse vas deferens assessed as inhibition of electrically induced contractions at 1.82 x 10^-5 M after 10 mins in presence of CB2 antagonist AM630 relative to control. The data set is classed as protein assay.
The target in data set [27] is T2, Acetylcholinesterase. Briefly: Inhibition of human erythrocyte AChE at 10 uM using acetylthiocholine as substrate by Ellman's assay.

Sequence of Cholinesterase (P06276 whole entry): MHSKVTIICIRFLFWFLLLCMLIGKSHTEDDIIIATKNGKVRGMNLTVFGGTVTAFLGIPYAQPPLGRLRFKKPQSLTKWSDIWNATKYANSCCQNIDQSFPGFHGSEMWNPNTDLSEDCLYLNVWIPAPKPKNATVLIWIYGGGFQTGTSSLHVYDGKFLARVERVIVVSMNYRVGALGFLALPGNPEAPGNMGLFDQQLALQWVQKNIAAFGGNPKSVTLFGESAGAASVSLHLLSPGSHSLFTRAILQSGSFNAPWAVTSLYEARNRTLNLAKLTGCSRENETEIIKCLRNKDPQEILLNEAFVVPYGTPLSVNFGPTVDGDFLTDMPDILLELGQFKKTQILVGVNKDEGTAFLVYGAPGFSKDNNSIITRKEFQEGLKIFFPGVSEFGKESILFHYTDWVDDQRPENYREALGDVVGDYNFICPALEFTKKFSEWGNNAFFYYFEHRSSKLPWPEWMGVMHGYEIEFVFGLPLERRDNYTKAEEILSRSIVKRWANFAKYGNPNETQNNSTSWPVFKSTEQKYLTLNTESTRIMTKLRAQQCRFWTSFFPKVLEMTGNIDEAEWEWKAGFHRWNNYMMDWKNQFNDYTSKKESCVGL
T1 sequence (P47746 whole entry, looked up): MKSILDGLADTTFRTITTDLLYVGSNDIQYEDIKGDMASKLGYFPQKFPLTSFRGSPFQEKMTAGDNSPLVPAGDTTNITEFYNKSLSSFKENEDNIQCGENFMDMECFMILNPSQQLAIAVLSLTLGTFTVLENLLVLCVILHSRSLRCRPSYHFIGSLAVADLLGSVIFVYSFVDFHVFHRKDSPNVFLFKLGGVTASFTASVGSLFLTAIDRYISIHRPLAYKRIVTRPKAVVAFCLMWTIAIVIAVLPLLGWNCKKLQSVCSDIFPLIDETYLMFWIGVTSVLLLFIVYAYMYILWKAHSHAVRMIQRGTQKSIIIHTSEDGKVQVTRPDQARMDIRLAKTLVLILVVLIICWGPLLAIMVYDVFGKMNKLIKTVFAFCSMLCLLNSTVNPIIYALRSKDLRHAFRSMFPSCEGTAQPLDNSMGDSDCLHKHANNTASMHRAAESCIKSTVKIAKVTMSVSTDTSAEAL
T1 sequence (P47936 whole entry, looked up): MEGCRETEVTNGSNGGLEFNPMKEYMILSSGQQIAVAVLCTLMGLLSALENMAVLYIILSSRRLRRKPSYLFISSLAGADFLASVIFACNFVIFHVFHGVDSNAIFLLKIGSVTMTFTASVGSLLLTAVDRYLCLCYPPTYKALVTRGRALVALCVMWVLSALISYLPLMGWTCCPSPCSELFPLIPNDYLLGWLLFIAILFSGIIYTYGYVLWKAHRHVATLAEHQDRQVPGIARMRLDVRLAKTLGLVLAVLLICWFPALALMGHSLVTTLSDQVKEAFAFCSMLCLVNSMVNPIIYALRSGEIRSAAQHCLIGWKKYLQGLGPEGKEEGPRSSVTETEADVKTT
Sequence of Beta-secretase 1 (Homo sapiens) (P56817 whole entry): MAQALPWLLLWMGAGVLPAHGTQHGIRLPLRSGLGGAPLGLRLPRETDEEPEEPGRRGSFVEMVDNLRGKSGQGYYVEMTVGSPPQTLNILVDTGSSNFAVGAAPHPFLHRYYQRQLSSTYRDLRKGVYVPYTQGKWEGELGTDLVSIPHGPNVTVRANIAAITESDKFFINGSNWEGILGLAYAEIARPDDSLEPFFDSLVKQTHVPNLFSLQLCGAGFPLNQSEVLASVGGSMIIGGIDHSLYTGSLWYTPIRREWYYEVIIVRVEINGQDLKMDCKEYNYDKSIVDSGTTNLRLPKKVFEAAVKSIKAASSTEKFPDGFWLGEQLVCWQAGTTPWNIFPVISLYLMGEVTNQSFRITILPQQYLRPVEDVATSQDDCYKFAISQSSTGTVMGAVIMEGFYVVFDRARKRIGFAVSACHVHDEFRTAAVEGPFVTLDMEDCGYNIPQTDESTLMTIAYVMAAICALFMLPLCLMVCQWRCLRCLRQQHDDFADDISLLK
T2 sequence (P22303 whole entry): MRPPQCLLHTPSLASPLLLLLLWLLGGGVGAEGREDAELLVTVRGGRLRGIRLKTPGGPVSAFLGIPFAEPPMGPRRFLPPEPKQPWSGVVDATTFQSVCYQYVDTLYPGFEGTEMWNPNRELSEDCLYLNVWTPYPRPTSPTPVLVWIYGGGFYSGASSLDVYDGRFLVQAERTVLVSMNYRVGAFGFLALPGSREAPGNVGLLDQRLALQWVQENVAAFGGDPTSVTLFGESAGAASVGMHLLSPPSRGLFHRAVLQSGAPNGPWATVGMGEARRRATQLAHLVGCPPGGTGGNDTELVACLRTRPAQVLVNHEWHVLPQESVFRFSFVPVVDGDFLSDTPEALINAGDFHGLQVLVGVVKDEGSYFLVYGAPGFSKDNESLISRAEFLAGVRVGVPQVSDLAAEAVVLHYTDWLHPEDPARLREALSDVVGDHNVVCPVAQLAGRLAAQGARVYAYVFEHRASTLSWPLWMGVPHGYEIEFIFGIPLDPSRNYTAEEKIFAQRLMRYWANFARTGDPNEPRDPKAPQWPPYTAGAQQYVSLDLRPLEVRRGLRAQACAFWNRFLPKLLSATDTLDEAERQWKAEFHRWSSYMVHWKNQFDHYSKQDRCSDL

As for `O=C(c1cccc(Cl)c1Cl)n1nc(OCCN2CCCC2)c2ccccc21`, the outcome in the data set listed under Homo sapiens [1] and with SH-SY5Y [8] was Active. The inhibition in data set [2] was 0%; in data set [3], 30.4%; in [4], 1.6%; in data set [5], -0.3%; in data set [9], 14.2%; in data set [10], 80.8%. Moreover, the inhibition amounted to 3.4% in data set [11]; 17.3% in [13]; 13% in [14]; 7.9% in [15]; 3.4% in data set [16]; 5.6% in [17]. Moreover, the inhibition amounted to 7.1% in data set [19]; 32.6% in [20]; 56.3% in data set [21]; 80.4% in [22]; 44.8% in data set [23]; 27.8% in data set [25]. In data set [26], the inhibition was 52.9%. Also, the IC50 against Acetylcholinesterase [6] is more than 10 µM; against Cholinesterase, 230 nM. The result in the data set on SH-SY5Y [7] and in the data set filed under Homo sapiens [12] was inactive. The Activity in data set [18] is 0.41 equiv; in [24], “Non-Toxic”.
Turning to `O=C(c1ccccc1Cl)n1nc(OCCN2CCCC2)c2ccccc21`, the outcome in the data set filed under Homo sapiens [1] and in the data set with SH-SY5Y [8] was Active. Also, the inhibition in [2] is -2.5%; in [3], 15.8%; in [4], 1.5%; in data set [5], -2.8%; in data set [9], 8.8%; in [10], 75.4%. Also, the inhibition in data set [11] is 0.3%; in data set [13], 10.8%; in [14], -2.2%; in data set [15] it was 3.5%; in [16], -2.8%; in data set [17], 4.9%. Besides, the inhibition in data set [19] is -1.2%; in data set [20] it was 9%; in [21], 45.9%; in data set [22], 21.1%; in data set [23], -2.6%; in data set [25], 15.1%. Besides, the inhibition in [26] turned out to be 29.3%. In addition, the 50% inhibitory concentration (IC50) at Acetylcholinesterase [6] was 9.7 µM; at Cholinesterase, 1300 nM. For the same compound, the outcome (in the data set with SH-SY5Y [7]; in the data set listed under Homo sapiens [12]; in data set [18]) was inactive. The Activity entry in [24] is reported as “Non-Toxic”.
In the case of `O=C(c1cccc2ccccc12)n1nc(OCCCN2CCCCC2)c2ccccc21`, the inhibition is -8.2% in data set [2]; 41% in data set [3]; 1% in data set [4]; -6.4% in data set [5]; 14.2% in data set [9]; 55.9% in data set [10]. Moreover, the inhibition in [11] was -5.4%; in [13], 7.9%; in data set [14] it was -2.4%; in [15], 0.1%; in data set [16] it was -5%; against Acetylcholinesterase [27] it was 43%. Also, the inhibition was 3% in data set [17]; -3.7% in data set [19]; 42% in data set [20]; 31.5% in [21]; 18.4% in [22]; 2.7% in data set [23]. Moreover, the inhibition was determined as 16% in data set [25] and 56.7% in data set [26]. Further, the IC50 is more than 10 µM on Acetylcholinesterase [6] and 0.07 nM against Cholinesterase. Also, the outcome in [18] was inactive.
As to `O=C(c1cccc2ccccc12)n1nc(OCCN2CCCCC2)c2ccccc21`, the inhibition in data set [2] was -8.6%; in [3] it was 73.6%; in [4], -0.7%; in data set [5], -7.7%; in [9], 15.7%; in data set [10], 93.7%. The inhibition was -7.9% in [11]; 8.6% in data set [13]; -2.6% in data set [15]; 37% against Acetylcholinesterase [27]; 1.4% in data set [17]; 11% in [20]. The inhibition was found to be 69.2% in data set [21]; 73.3% in [22]; 27.8% in data set [23]; 28.6% in data set [25]; 92% in data set [26]. In addition, the IC50 is more than 10 µM at Acetylcholinesterase [6] and 0.26 nM against Cholinesterase. Besides, in [18], the outcome was inactive.
Turning to `O=C(c1c(F)ccc(F)c1F)n1nc(OCCN2CCCCC2)c2ccccc21`, the inhibition in [2] was -3.3%; in data set [3] it was 32.3%; in data set [4] it was 4.8%; in data set [5], -5.3%; in [9], 12.8%; in data set [10], 73.2%. The inhibition was -1.7% in data set [11]; 20.8% in data set [13]; 10.4% in data set [14]; 4.4% in data set [15]; -3.5% in [16]; 9.2% in data set [17]. The inhibition in [19] was 6.7%; in [20], 14.3%; in data set [21], 60.9%; in data set [22], 37.1%; in [23], 23.6%; in [25], 40.6%. Also, the inhibition in data set [26] was determined as 49.1%. Further, the results for the concentration for half-maximal inhibition (IC50) against Acetylcholinesterase [6] and against Cholinesterase were 9.4 µM and 9400 nM, respectively. Besides, the result in data set [18] was inactive.
Turning to `O=C(c1cccc2ccccc12)n1nc(OCCCN2CCCC2)c2ccccc21`, the inhibition is -2.7% in data set [2]; 68.7% in data set [3]; -2% in [4]; -6.7% in data set [5]; 15.2% in data set [9]; 87.4% in data set [10]. For the same compound, the inhibition in [11] was -0.9%; in data set [13], 3.2%; in data set [14], 5.7%; in data set [15] it was 4%; in [16] it was -8.6%; at Acetylcholinesterase [27] it was 35%. In addition, the inhibition in [17] is 0.5%; in [19], -7.2%; in [20] it was 20%; in [21], 56.1%; in data set [22], 88.4%; in data set [23] it was 57.9%. The inhibition in data set [25] was determined as 11.3%; in data set [26] it was 89.5%. The results for the IC50 on Acetylcholinesterase [6] and against Cholinesterase were more than 10 µM and 0.15 nM, respectively. Moreover, the result in data set [18] was inactive.
Turning to `CCCC(C)(C)c1ccc2c(c1)OC(C)(C)[C@@H]1CC=C(C)C[C@@H]21`, the result in the data set filed under Homo sapiens [1] was Active. Also, the Activity entry in data set [24] is listed as “Non-Toxic”.
